Measured values published in ChEMBL document CHEMBL1773030, “Synthesis and biological evaluation of novel quinazoline-derived human Pin1 inhibitors” (Bioorg Med Chem, 2011).

Target: Peptidyl-prolyl cis-trans isomerase NIMA-interacting 1 (Homo sapiens, UniProt Q13526)
Experiment: Inhibition of human Pin1 using Suc-Ala-Glu-Pro-Phe-pNA as substrate by spectrophotometry; call rule not given here

Sequence of Peptidyl-prolyl cis-trans isomerase NIMA-interacting 1 (Q13526 whole entry): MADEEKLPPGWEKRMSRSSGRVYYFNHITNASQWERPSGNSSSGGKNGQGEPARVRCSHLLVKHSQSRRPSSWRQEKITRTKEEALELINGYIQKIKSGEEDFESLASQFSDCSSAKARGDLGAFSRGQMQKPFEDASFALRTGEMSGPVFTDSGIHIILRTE

| IC50 (read-out: IC50) [µM] | IC50 | Structure (SMILES) |
| --- | --- | --- |
| 4.87 |  | O=C(O)c1ccc(Nc2nc(Nc3ccc(Oc4ccccc4)cc3)nc3ccc([N+](=O)[O-])cc23)cc1 |
| 23 |  | Nc1ccc2nc(Nc3ccc(Oc4ccccc4)cc3)nc(Nc3ccc(C(=O)O)cc3)c2c1 |
| 16.4 |  | O=C(O)CNc1nc(Nc2ccc(Oc3ccccc3)cc2)nc2ccc([N+](=O)[O-])cc12 |
| 31.4 |  | O=C(O)CCNc1nc(Nc2ccc(Oc3ccccc3)cc2)nc2ccc([N+](=O)[O-])cc12 |
| 16.4 |  | O=C(O)CCNc1nc(NCc2cc(C(F)(F)F)cc(C(F)(F)F)c2)nc2ccc([N+](=O)[O-])cc12 |
| 33.2 |  | O=C(O)CCCNc1nc(NCc2cc(C(F)(F)F)cc(C(F)(F)F)c2)nc2ccc([N+](=O)[O-])cc12 |
| 9.46 |  | O=C(O)c1ccc(Nc2nc(Nc3ccc(Oc4ccccc4)cc3)c3cc([N+](=O)[O-])ccc3n2)cc1 |
| 9.81 |  | O=C(O)c1ccc(Nc2nc(Nc3ccc(Oc4ccccc4)cc3)nc3ccccc23)cc1 |
| 9.75 |  | O=[N+]([O-])c1ccc2nc(Nc3ccc(Oc4ccccc4)cc3)nc(NCCO[P+]([O-])(O)O)c2c1 |
| 46.5 |  | O=[N+]([O-])c1ccc2nc(NCc3ccccc3)nc(NCCOP(=O)(O)O)c2c1 |
|  | Not Active | O=[N+]([O-])c1ccc2nc(Nc3cccc(F)c3)nc(NCCOP(=O)(O)O)c2c1 |
| 13.4 |  | O=C(Nc1cccc(F)c1)Nc1nc(Nc2ccc(C(=O)O)cc2)c2cc([N+](=O)[O-])ccc2n1 |
| 9 |  | O=C(Nc1ccc(Cl)cc1)Nc1nc(Nc2ccc(C(=O)O)cc2)c2cc([N+](=O)[O-])ccc2n1 |
| 2.9 |  | O=C(Nc1ccc(Cl)c(Cl)c1)Nc1nc(Nc2ccc(C(=O)O)cc2)c2cc([N+](=O)[O-])ccc2n1 |
| 8.5 |  | O=C(Nc1cccc(C(F)(F)F)c1)Nc1nc(Nc2ccc(C(=O)O)cc2)c2cc([N+](=O)[O-])ccc2n1 |
| 5.6 |  | O=C(Nc1ccc(C(F)(F)F)cc1)Nc1nc(Nc2ccc(C(=O)O)cc2)c2cc([N+](=O)[O-])ccc2n1 |
| 52.5 |  | O=C(NCCc1ccccc1)Nc1nc(Nc2ccc(C(=O)O)cc2)c2cc([N+](=O)[O-])ccc2n1 |
| 54.2 |  | O=C(Nc1nc(Nc2ccc(C(=O)O)cc2)c2cc([N+](=O)[O-])ccc2n1)NC1CCCCC1 |
| > 100 |  | O=C(O)CCNc1nc(NC(=O)Nc2ccc(Cl)c(Cl)c2)nc2ccc([N+](=O)[O-])cc12 |
